Test results taken from PMC4999267, “Characterization of Promiscuous Binding of Phosphor Ligands to Breast-Cancer-Gene 1 (BRCA1) C-Terminal (BRCT): Molecular Dynamics, Free Energy, Entropy and Inhibitor Design” (PLoS Computational Biology, 2016).

Target: BRCT(BRCA1) (Homo sapiens, UniProt P38398)
Assay: fluorescence polarization competition
Type: binding
Description: fluorescence polarization competition on BRCT(BRCA1)

Chain of BRCT(BRCA1) (P38398 1646-1859): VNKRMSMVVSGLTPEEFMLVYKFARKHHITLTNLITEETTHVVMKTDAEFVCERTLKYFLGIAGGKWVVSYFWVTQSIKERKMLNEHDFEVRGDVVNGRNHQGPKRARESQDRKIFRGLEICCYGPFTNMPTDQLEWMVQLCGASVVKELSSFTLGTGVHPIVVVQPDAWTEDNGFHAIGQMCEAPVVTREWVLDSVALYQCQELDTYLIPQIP

- IC50: > 250 µM
SMILES: CC(=O)N[C@@H](COP(=O)(O)O)C(=O)Nc1cccc(CC(=O)N[C@@H](Cc2ccccc2)C(=O)O)c1 [N1]
